Format in all cases: cell-based
Assay [1] has as its system Aspergillus flavus. In words: Agar plate disc-diffusion, antifungal inhibition zone. The conditions noted are these: Sabouraud's dextrose agar, 72 hours, DMSO zone subtracted. The method, then: (§1) The agar plate disc-diffusion method was applied. Sterilized filter papers (6 mm in diameter) were wetted with 10 μL of a solution of compounds 6-(6-bromo-2-oxo-2H-chromen-3-yl)-4-(2,4-dichlorophenyl)-2-ethoxynicotinonitrile 1 or 6-(6-bromo-2-oxo-2H-chromen-3-yl)-4-(2,4-dichlorophenyl)-2-methoxynicotinonitrile 2 to be tested, containing […], and the discs were allowed to air dry. The discs were then placed onto the surface of agar plates (nutrient agar for bacteria and Sabouraud's dextrose agar for fungi) seeded with the test organism. Each plate contained 15 mL of the agar medium, previously seeded with 0.2 mL of the broth culture of each organism pregrown for 18 hours. The plates were incubated at 37° C. for 48 hours, and 72 hours for fungi. The inhibition zones were measured in mm. Discs impregnated with DMSO were used as a control, and its inhibition zone was subtracted from the tested compound actual inhibition zone.
(§2) The results of the antimicrobial testing can be observed in Tables 1 and 2, below, using ciprofloxacin as a reference.
(In general: A growth-free zone around the sample is the usual read-out of agar diffusion tests.)

In assay [2] the test system is Chrysosporium keratinophilum. Described as above. The conditions noted are these: Sabouraud's dextrose agar, 72 hours, DMSO zone subtracted. As for the experimental part:
as §1, §2

Assay [3] deals with Pseudomonas aeruginosa. As to the kind of experiment: Agar plate disc-diffusion, antibacterial inhibition zone. The conditions noted are these: nutrient agar, 37° C., 48 hours, DMSO zone subtracted. As for the experimental part: as §1, §2
For assay [4], the system named is Bacillus Cereus. The description is as above. The following applies: nutrient agar, 37° C., 48 hours, DMSO zone subtracted. As for the experimental part:
as §1, §2

Assay [5] deals with Escherichia coli. Described as above. The conditions noted are these: nutrient agar, 37° C., 48 hours, DMSO zone subtracted. The method, then:
as §1, §2

Assay [6] has as its system Staphylococcus aureus. The description is as above. The conditions noted are these: nutrient agar, 37° C., 48 hours, DMSO zone subtracted. As for the experimental part: as §1, §2
Assay [7] relates to different microbes. As to the kind of experiment: Antimicrobial testing, overall statement in words. The following applies: summary of Tables 1 and 2, bacteria and fungi. The method, then: as §1
Their antibacterial activity was screened against gram positive bacteria namely Bacillus cereus and Staphylococcus aureus and gram-negative bacterial strains namely Pseudomonas aeruginosa and Escherichia coli, while their antifungal activity was screened against Aspergillus flavus and Chrysosporium keratinophilum.

Setting [8] is: A = concentration of comp. = 10,000 μL.
Where [9] appears, read: B = concentration of comp. = 30,000 μL.
[10] abbreviates: C = concentration of comp. = 50,000 μL.

This is an account of results in US12180195B1, “6-(6-bromo-2-oxo-2H-chromen-3-yl)-4-(2,4-dichlorophenyl)-2-alkoxynicotinonitrile as an antimicrobial compound” (KING FAISAL UNIVERSITY, priority 2023, dated 2024).

As to `O=C(O)c1cn(C2CC2)c2cc(N3CCNCC3)c(F)cc2c1=O` [Cip., ciprofloxacin, reference compound], the inhibition zone in assay [1] (setting [8]) was 29 mm; in assay [1] (setting [9]), 30 mm; in assay [1] (setting [10]) it was 42 mm; in assay [2] (setting [8]), 29 mm; in assay [2] (setting [9]) it was 30 mm; in assay [2] (setting [10]), 53 mm. For the same compound, the inhibition zone in assay [3] (setting [8]) is given as 29 mm; in assay [3] (setting [9]), 30 mm; in assay [3] (setting [10]), 53 mm; in assay [4] (setting [8]) it was 29 mm; in assay [4] (setting [9]) it was 30 mm; in assay [4] (setting [10]), 42 mm. The inhibition zone in assay [5] (setting [8]) is given as 30 mm; in assay [5] (setting [9]), 39 mm; in assay [5] (setting [10]), 60 mm; in assay [6] (setting [8]), 43 mm; in assay [6] (setting [9]), 44 mm; in assay [6] (setting [10]) it was 53 mm.

Consider `CCOc1nc(-c2cc3cc(Br)ccc3oc2=O)cc(-c2ccc(Cl)cc2Cl)c1C#N` [Compound 1, 6-(6-bromo-2-oxo-2H-chromen-3-yl)-4-(2,4-dichlorophenyl)-2-ethoxynicotinonitrile], for which the inhibition zone worked out at 26 mm in assay [1] (setting [8]); 28 mm in assay [1] (setting [9]); 39 mm in assay [1] (setting [10]); 22 mm in assay [2] (setting [8]); 33 mm in assay [2] (setting [9]); 39 mm in assay [2] (setting [10]). In addition, the inhibition zone in assay [3] (setting [8]) is given as 24 mm; in assay [3] (setting [9]), 31 mm; in assay [3] (setting [10]), 42 mm; in assay [4] (setting [8]) it was 26 mm; in assay [4] (setting [9]) it was 27 mm; in assay [4] (setting [10]) it was 38 mm. Besides, the inhibition zone was determined as 30 mm in assay [5] (setting [8]); 38 mm in assay [5] (setting [9]); 54 mm in assay [5] (setting [10]); 13 mm in assay [6] (setting [8]); 20 mm in assay [6] (setting [9]); 27 mm in assay [6] (setting [10]). For the same compound, in assay [7], the “antimicrobial activity (in words)” value is reported as “high antimicrobial activities”.

Regarding `COc1nc(-c2cc3cc(Br)ccc3oc2=O)cc(-c2ccc(Cl)cc2Cl)c1C#N` [Compound 2, 6-(6-bromo-2-oxo-2H-chromen-3-yl)-4-(2,4-dichlorophenyl)-2-methoxynicotinonitrile], the inhibition zone in assay [1] (setting [8]) stood at 17 mm; in assay [1] (setting [9]), 21 mm; in assay [1] (setting [10]), 29 mm; in assay [2] (setting [8]), 28 mm; in assay [2] (setting [9]), 29 mm; in assay [2] (setting [10]), 46 mm. For the same compound, the inhibition zone in assay [3] (setting [8]) is reported as 24 mm; in assay [3] (setting [9]), 27 mm; in assay [3] (setting [10]), 42 mm; in assay [4] (setting [8]), 27 mm; in assay [4] (setting [9]), 28 mm; in assay [4] (setting [10]), 40 mm. In addition, the inhibition zone in assay [5] (setting [8]) is 28 mm; in assay [5] (setting [9]), 37 mm; in assay [5] (setting [10]), 49 mm; in assay [6] (setting [8]), 14 mm; in assay [6] (setting [9]), 21 mm; in assay [6] (setting [10]), 25 mm. In assay [7], the “antimicrobial activity (in words)” value is reported as “high antimicrobial activities”.
